Source: ChEMBL document CHEMBL1201862, “PubChem BioAssay data set” (2004)
Activity calls are given as the source filed them.

Experiments:
Leucine aminopeptidase = target: T1, Leucine aminopeptidase (Plasmodium falciparum 3D7, UniProt Q8IL11); assay: P. falciparum M17LAP inhibitors, primary screen, biochemical, fluorogenic H-Leu-NHMec substrate, 1536-well (AID 1619); type: functional
T1 sequence (Q8IL11 whole entry): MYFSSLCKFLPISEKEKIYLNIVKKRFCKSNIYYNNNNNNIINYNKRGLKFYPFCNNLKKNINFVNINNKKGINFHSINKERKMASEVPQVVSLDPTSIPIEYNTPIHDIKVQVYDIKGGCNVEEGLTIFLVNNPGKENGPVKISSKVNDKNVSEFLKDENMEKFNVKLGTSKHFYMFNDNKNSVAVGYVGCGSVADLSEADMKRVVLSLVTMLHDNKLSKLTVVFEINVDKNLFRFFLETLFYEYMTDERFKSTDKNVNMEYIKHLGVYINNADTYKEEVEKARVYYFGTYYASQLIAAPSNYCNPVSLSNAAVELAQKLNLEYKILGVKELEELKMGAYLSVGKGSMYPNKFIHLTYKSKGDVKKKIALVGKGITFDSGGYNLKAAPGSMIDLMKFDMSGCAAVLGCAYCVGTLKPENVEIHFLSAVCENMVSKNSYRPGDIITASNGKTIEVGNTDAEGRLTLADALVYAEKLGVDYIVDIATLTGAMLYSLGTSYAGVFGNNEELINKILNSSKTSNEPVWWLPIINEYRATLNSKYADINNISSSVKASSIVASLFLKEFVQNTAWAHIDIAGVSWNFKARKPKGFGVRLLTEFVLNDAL

cells = type: functional
Cytochrome P450 2C19 = Cytochrome P450 2C19 (Homo sapiens, UniProt P33261); assay: Cytochrome panel assay with activity outcomes. Panel member name: p450-cyp2c19 Compounds with AC50 equal or less than 10 uM are considered active; type: functional; settings: read-out: AC50
Cytochrome P450 3A4 = Cytochrome P450 3A4 (Homo sapiens, UniProt P08684);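 also: CYP3A4 tested as one member of a cytochrome P450 panel screen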
Cytochrome P450 2C9 = Cytochrome P450 2C9 (Homo sapiens, UniProt P11712)
Large T antigen = Large T antigen (Simian virus 40, UniProt P03070); type: functional, Betapolyomavirus macacae;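 also: Confirmatory-stage PubChem screen for compounds that inhibit SV40 T antigen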
[1] = inhibitors of intracellular T. cruzi replication, confirmation, NIH3T3 host cells, beta-gal luminescence (AID 2044); type: functional, cell-based;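 also: intracellular parasites grown in NIH/3T3 mouse fibroblasts as host cells; luminescent beta-galactosidase reporter signal from transgenic T. cruzi replicating inside host cells; inhibitors lower the luminescence signal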
[2] = cytotoxicity toward NIH3T3 fibroblasts, dose response, counter-screen, cell-based, ATP luminescence, mouse fibroblasts (AID 2010); type: functional;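 also: cells exposed to compound for about 90 hours before reading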
[3] = cytotoxicity in HEK-293T cells, dose response, cytotoxicity control for TCR NF-kB inhibitor project, luminescence, T-cell screen hits (AID 489026); type: functional, cell-based;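 also: cells exposed to compound about 14 hours before the viability readout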
[4] = Shn3 3'UTR reporter inhibitors, dose response, cell-based, Clone20 osteoblasts, firefly luciferase, cherry-picked (AID 624132); type: functional;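 also: firefly luciferase luminescence from reporter carrying the Shn3 3'UTR in osteoblasts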
[5] = HepG2 cell cytotoxicity, dose response, cytotoxicity control for Shn3 inhibitor project, CellTiter-Glo, cherry-picked (AID 624134); type: functional, cell-based
[6] = control 3'UTR Renilla luciferase suppression, dose response, counter-screen for Shn3 inhibitor project, cell-based, Clone20-Shn3RL, cherry-picked (AID 624133); type: functional
[7] = tested on: Streptococcus sp. 'group A'; assay: growth inhibition of control SK(-) GAS strain, dose response, counter-screen for streptokinase expression inhibitor project, luminescence, kanamycin, BacTiterGlo, confirmation (AID 1900); type: functional, organism-based
Streptokinase A = target: T2, Streptokinase A (Streptococcus pyogenes serotype M1, UniProt P10520); assay: S. pyogenes streptokinase expression inhibitors, potency, dose response, plasminogen activation absorbance, OD405 (AID 1914); type: functional, Streptococcus pyogenes M1 GAS;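 also: secreted streptokinase activity via plasminogen activation per viability signal from cell pellet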
T2 sequence (P10520 whole entry): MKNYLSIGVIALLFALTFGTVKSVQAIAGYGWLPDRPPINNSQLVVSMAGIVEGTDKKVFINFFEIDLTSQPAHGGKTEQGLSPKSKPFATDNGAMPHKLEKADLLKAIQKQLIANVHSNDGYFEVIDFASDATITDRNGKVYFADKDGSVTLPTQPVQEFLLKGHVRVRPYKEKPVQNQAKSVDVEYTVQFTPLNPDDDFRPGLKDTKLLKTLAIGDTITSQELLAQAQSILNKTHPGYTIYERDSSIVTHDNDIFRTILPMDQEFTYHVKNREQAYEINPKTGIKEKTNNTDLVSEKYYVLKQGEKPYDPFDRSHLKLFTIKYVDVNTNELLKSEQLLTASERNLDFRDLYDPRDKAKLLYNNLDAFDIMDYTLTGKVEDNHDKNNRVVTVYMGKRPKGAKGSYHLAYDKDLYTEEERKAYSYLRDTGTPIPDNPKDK

Streptococcus = assay: Group A Streptococcus viability loss, dose response, counter-screen for streptokinase expression inhibitor project, luminescence, BacTiterGlo (AID 1915); type: functional, organism-based;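 also: potency for reduction of bacterial viability or growth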
[8] = inhibitors of firefly luciferase expression or activity, dose response, H4 neuroglioma cells, luminescence (AID 1990); type: functional, cell-based
[9] = Luminescence Cell-Based Dose Response HTS to Identify Inhibitors of 5'UTR Stem-Loop Driven Prion Protein mRNA Translation in H4 Neuroglioblastoma Cells. [Related pubchem assays: 1827 (Project Summary), 1813 (Primary HTS)]; type: functional
[10] = inhibitors of SNCA 5'UTR-driven reporter translation, confirmation, H4 neuroglioma cells, luminescence (AID 1988); type: functional, cell-based
[11] = microbe, parasite or virus in culture; type: functional; settings: Mycobacterium tuberculosis
INS1 = assay: beta cell apoptosis inhibitors, cytokine rescue, dose response, luminescence, retest (AID 449756); type: functional, cell-based; settings: Rattus norvegicus;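 also: cell death triggered by IL-1 beta plus TNF-alpha plus IFN-gamma mixture; protective hits raise ATP signal compared with cytokine alone wells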
[12] = HEp-2 cell cytotoxicity, dose response, cytotoxicity control for RSV inhibitor project, HTS (AID 2410); type: functional; settings: human respiratory syncytial virus
[13] = growth suppression of PTEN-null colon cells, dose response, cell-based, HCT116 PTEN knockout (AID 1047); type: functional;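 also: HCT116 colon tumor cells with PTEN knocked out; cells exposed to compound for 60 hours before readout; potency for loss of cell viability measured by luminescence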
[14] = growth suppression of beta-catenin-knockout colon cells, dose response, cell-based, HCT116, human colon tumor (AID 1045); type: functional;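 also: HCT116 colon tumor cells with beta catenin knocked out; cells exposed to compound for 60 hours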
[15] = NIH-3T3 fibroblast cytotoxicity, dose response, cytotoxicity control, cell-based, fluorescence, Alamar Blue, secondary assay (AID 2327); type: functional;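 also: NIH-3T3 mouse fibroblasts cultured with fluconazole at 8 µg/mL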
[16] = C. albicans growth with fluconazole, confirmation, fluorescence, retest (AID 2467); type: functional, cell-based
[17] = target: FAD-linked sulfhydryl oxidase ALR (Homo sapiens, UniProt P55789); assay: inhibitors of human ALR sulfhydryl oxidase, dose response, biochemical, H2O2 detection, luminescence, cherry-pick (AID 493248)
Chain of FAD-linked sulfhydryl oxidase ALR (P55789 whole entry): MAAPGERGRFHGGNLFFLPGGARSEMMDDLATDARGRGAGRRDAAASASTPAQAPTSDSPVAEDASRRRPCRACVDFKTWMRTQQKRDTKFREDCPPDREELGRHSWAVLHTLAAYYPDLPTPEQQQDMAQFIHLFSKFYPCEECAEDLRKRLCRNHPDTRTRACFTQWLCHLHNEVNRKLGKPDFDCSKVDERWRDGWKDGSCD

Chain of Large T antigen (P03070 whole entry): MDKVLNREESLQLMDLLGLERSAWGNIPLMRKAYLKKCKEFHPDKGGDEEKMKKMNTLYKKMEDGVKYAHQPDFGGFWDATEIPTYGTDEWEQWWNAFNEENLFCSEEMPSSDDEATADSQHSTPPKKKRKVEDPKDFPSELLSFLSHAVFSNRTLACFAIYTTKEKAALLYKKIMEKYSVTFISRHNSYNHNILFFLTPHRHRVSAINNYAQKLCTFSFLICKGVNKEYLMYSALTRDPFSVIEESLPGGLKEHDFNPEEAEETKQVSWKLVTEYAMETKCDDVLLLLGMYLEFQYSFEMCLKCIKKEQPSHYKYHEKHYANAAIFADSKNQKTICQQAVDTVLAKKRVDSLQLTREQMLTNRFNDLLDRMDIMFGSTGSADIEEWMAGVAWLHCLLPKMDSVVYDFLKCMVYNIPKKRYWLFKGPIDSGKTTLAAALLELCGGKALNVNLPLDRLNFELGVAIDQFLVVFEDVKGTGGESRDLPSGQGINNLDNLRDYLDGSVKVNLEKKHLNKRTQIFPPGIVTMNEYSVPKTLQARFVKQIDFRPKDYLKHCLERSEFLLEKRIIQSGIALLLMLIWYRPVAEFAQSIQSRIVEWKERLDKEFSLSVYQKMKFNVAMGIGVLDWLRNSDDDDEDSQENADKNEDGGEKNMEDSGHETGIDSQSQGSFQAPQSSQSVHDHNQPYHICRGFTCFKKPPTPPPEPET
Chain of Cytochrome P450 2C9 (P11712 whole entry): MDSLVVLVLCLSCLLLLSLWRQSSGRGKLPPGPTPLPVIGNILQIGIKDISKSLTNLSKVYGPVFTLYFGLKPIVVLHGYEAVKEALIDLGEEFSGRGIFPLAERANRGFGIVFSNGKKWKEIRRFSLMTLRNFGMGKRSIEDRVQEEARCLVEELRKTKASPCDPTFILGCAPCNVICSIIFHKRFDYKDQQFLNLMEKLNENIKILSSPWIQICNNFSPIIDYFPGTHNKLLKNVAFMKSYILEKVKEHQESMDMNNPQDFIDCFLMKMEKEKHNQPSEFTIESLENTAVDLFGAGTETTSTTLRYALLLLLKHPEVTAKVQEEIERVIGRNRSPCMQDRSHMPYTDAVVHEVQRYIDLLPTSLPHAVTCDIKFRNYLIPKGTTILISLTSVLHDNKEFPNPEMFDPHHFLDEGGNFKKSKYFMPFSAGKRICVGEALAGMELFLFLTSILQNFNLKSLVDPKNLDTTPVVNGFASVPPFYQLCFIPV
Chain of Cytochrome P450 2C19 (P33261 whole entry): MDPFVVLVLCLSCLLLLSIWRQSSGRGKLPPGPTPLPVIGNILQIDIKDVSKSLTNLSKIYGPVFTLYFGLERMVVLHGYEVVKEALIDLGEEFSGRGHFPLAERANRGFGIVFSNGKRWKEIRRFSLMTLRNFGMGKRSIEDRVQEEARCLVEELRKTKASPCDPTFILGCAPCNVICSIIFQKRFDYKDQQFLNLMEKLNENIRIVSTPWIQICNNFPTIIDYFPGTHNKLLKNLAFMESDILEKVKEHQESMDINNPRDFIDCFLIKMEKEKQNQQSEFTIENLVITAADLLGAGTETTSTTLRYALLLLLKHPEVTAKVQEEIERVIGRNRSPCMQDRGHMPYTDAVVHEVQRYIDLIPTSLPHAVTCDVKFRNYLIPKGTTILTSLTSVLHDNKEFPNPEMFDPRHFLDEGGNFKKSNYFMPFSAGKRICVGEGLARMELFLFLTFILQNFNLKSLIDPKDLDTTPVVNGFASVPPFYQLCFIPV
Chain of Cytochrome P450 3A4 (P08684 whole entry): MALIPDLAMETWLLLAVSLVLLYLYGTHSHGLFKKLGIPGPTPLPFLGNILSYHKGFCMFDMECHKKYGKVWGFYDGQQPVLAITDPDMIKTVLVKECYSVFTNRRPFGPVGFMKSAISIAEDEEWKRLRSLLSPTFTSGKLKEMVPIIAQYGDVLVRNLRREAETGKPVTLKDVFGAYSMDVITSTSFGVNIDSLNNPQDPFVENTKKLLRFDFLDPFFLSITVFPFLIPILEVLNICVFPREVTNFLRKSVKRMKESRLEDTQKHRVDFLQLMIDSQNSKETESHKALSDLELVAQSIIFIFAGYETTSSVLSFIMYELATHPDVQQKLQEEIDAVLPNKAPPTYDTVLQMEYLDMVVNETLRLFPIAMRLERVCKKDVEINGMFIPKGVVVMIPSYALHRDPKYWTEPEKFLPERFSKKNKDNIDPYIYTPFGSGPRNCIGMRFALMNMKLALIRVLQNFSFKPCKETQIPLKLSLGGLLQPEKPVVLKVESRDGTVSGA

Q: With `Oc1cc(-c2ccccc2)nc2nc(SCc3ccccc3)nn12` as the compound, how does the IC50 (Leucine aminopeptidase) read?
A: 5.04 µM (active)

Q: For `CCOC(=O)Cn1c(-c2ccccc2)ccc(C#N)c1=O`, which IC50 (cells) is on record?
A: 7.5 µM (active)

Q: Which AC50 (Cytochrome P450 2C19) does the source give for `CNc1nc(-c2c(C)noc2C)nc2ccccc12` here?
A: 3.98 µM (inconclusive)

Q: And the AC50 (Cytochrome P450 3A4)?
A: 12.6 µM (inconclusive)

Q: What about the AC50 (Cytochrome P450 2C9) of the same compound?
A: inconclusive

Q: Which IC50 (Large T antigen) does the source give for `CCOC(=O)CNc1c(-c2ccc(O)cc2)nc2ccccn12` here?
A: 14.7 µM (active)

Q: For `CC(Oc1ccc(Cl)cc1Cl)c1nc(-c2ccc(NC(=O)c3ccncc3)cc2)no1` (stereo unspecified), which EC50 [1] is on record?
A: 1.46 µM (active)

Q: What about the EC50 [2] of the same compound?
A: > 60 µM (not active)

Q: And the IC50 [3]?
A: > 80 µM (inactive)

Q: And the AC50 [4]?
A: 3.93 µM (active)

Q: And the AC50 [5]?
A: 6.83 µM (active)

Q: And the AC50 [6]?
A: 21.7 µM (active)

Q: For `Nc1nc2ccc(O)cc2s1`, which IC50 (Large T antigen) is on record?
A: 3.5 µM (active)

Q: Which IC50 (Large T antigen) does the source give for `N#CC1=C2SCN(Cc3ccco3)CN2C(=O)CC1c1c(F)cccc1Cl` (stereo unspecified) here?
A: 84.4 µM (active)

Q: With `O=C(OCC#CCSc1nc2ccccc2o1)c1ccco1` as the compound, how does the IC50 (cells) read?
A: 10 µM (active)

Q: With `Cc1cc(C)cc(NC(=O)C2CCN(c3nc(C)cc(C)n3)CC2)c1` as the compound, how does the IC50 (Leucine aminopeptidase) read?
A: 105 µM (active)

Q: With `CC(C)(C)OC(=O)[C@H]1[C@H](c2ccc([N+](=O)[O-])cc2)C2(C(=O)c3ccccc3C2=O)C2c3ccccc3C=NN21` (stereo partly specified) as the compound, how does the IC50 (Leucine aminopeptidase) read?
A: 2.23 µM (active)

Q: For `O=C(Oc1cccnc1)c1ccc(Cl)c(Cl)c1`, which IC50 (cells) is on record?
A: 1.31 µM (active)

Q: With `C=C(C)C(=O)N1CC2(CC(c3cccc(NC(=O)c4ccccc4)c3)=NO2)C[C@@H]1C(N)=O` (stereo partly specified) as the compound, how does the AC50 (Cytochrome P450 2C9) read?
A: inconclusive

Q: Which results are given for `S=C(NCCSCc1ccc(Cl)cc1Cl)Nc1ccccc1`?
A: EC50 [7]: 11.5 µM (active); EC50 (Streptokinase A): > 150 µM (not active); EC50 (Streptococcus): 17 µM (active); AC50 (Cytochrome P450 2C9): inconclusive

Q: Which results are given for `COc1ccc(C)cc1Nc1n[n+](-c2ccccc2)c(-c2c(Cl)cccc2Cl)s1`?
A: EC50 [8]: > 120 µM (not active); EC50 [9]: 12.6 µM (active); EC50 [10]: > 120 µM (not active); CC50 [11]: 9.91 µM (active); AC50 (INS1): 4.16 µM (active)

Q: With `O=C(O)c1ccc(-c2ccc(-c3ccccc3)cc2)s1` as the compound, how does the IC50 [3] read?
A: > 80 µM (inactive)

Q: With `Cc1cccc(C)c1OCC(O)CN1CCC(CN2C(=O)c3cccc4cccc(c34)C2=O)CC1` (stereo unspecified) as the compound, how does the CC50 [12] read?
A: 7.63 µM (active)

Q: What about the EC50 [7] of the same compound?
A: 9.04 µM (active)

Q: What about the EC50 (Streptokinase A) of the same compound?
A: 38.2 µM (active)

Q: And the CC50 [11]?
A: 23.4 µM (active)

Q: What about the EC50 [13] of the same compound?
A: 11.7 µM (active)

Q: What about the EC50 [14] of the same compound?
A: 9.53 µM (active)

Q: What about the EC50 (Streptococcus) of the same compound?
A: 16.7 µM (active)

Q: For `CC1CCCN(Cc2c(O)ccc3c(O)c(-c4nc5ccccc5s4)c(=N)oc23)C1` (stereo unspecified), which EC50 [15] is on record?
A: 76.2 µM (active)

Q: And the EC50 [16]?
A: > 38 µM (not active)

Q: What about the CC50 [11] of the same compound?
A: 17.2 µM (active)

Q: What about the EC50 [13] of the same compound?
A: 13.9 µM (active)

Q: What about the EC50 [14] of the same compound?
A: 18.9 µM (active)

Q: Which IC50 (Leucine aminopeptidase) does the source give for `COc1ccc(OCCCn2cccc2/C=C2/C(=N)N3OC(C)=CC3=NC2=O)cc1` here?
A: 10.9 µM (active)

Q: For `Nc1c2c(nc3ccccc13)CCC[C@H]2O`, which AC50 (Cytochrome P450 2C9) is on record?
A: inconclusive

Q: With `O=S(=O)(c1cc(F)ccc1F)N1CCN(c2ncnc3ccccc23)CC1` as the compound, how does the IC50 [3] read?
A: 65.1 µM (inactive)

Q: What about the AC50 (INS1) of the same compound?
A: 2.26 µM (active)

Q: And the AC50 [4]?
A: 1.85 µM (active)

Q: And the AC50 [5]?
A: 33.6 µM (active)

Q: What about the AC50 [6] of the same compound?
A: 4.86 µM (active)

Q: Which IC50 (cells) does the source give for `Cc1ccc(NC(=O)CCSc2nnc(Cc3ccccc3)o2)cc1` here?
A: 18.2 µM (active)

Q: For `O=C(OCC(=O)N1CCN(c2ccccc2)CC1)c1ccc2ccccc2n1`, which IC50 (cells) is on record?
A: 16.3 µM (active)

Q: For `COc1cccc2cc(C(=O)CC3(O)C(=O)N(Cc4ccccc4)c4ccccc43)c(=O)oc12` (stereo unspecified), which AC50 (Cytochrome P450 2C9) is on record?
A: inconclusive

Q: Which IC50 (cells) does the source give for `Oc1oc(-c2ccco2)nc1/C=N/c1cccc(Cl)c1` here?
A: > 50 µM (active)

Q: With `Cc1ccc(-n2c(=O)c3c4c(sc3n3c(S)nnc23)CCC4)cc1` as the compound, how does the IC50 (Large T antigen) read?
A: 30.9 µM (active)

Q: Which IC50 (Large T antigen) does the source give for `CCN(CC)c1ccc(NC(=O)CCNS(=O)(=O)c2ccc3c(c2)CCC(=O)N3)c(C)c1` here?
A: 42.6 µM (active)

Q: And the AC50 [17]?
A: 1.09 µM (active)

Q: With `FC(F)(F)C1CCCN(c2nsc3ccccc23)C1` (stereo unspecified) as the compound, how does the IC50 (Large T antigen) read?
A: 13 µM (active)
